The structures appear in SMILES notation. ≈ marks a conversion by molar mass, not a printed value. Where “and” joins values, the source holds several entries; their conditions need not be identical. Equal entries are not always repeated.

Assay [1] concerns H. pylori ATCC 43504. Nature of the assay: In vivo bacterial eradication test in infected mice. To be noted: for Bacterial eradication number / bacterial eradication % / Number of each bacterium in stomach: oral, three days; for Bacterial eradication number / bacterial eradication %: 3 samples; for Number of each bacterium in stomach: individual mice, limit of detection log 1.3; for bacterial eradication effect: 40 mg/kg. The arrangement: species or system mice of the ICR strain. As for the experimental part: Next, the compound of the present invention was studied as to whether or not it had bacterial eradication activity in vivo. 5-week old mice of the ICR strain from CLEA Japan, Inc. were used. These mice were infected with H. pylori ATCC 43504 (day 0). After the mice had been confirmed to be infected with H. pylori, the dose indicated in Table 3 was administered into the mice twice a day (AM 9 and PM 5) from day 20 to day 22. At day 23 which was the day after the last day of the administration, the mice were dissected and the number of bacteria within their stomachs were counted. The bacteria count measurement was conducted in the following manner. Phosphate buffer was added to the collected stomachs to prepare homogenates. These homogenates were inoculated to 7% horse blood-added agar medium to which various drugs were added in order to suppress the growth of bacteria other than the genus Helicobacter, and cultured at 37° C. for 7 days in a 10% CO2 incubator. The bacterial eradication activity was judged by detecting the presence or absence of the growth of the bacteria.

In assay [2] the test system is Helicobacter pylori ATCC 43629. Nature of the assay: Agar plate dilution method, MIC. The assay is classed as cell-based. As to conditions: ATCC43629, 96 h; Helicobacter pylori ATCC 43629, BHI agar with 7% horse blood, 4 days. As for the experimental part:
(§1) Firstly, the thus-synthesized compound of the present invention (2) was studied for its activity in vitro. For antibacterial activity, an agar plate dilution method was employed. The agar plate dilution method is well known in the art.
(§2) Specifically, a test compound containing the compound of the present invention was dissolved into dimethylsulfoxide, and serially diluted by two fold each time with sterile distilled water to prepare an antibacterial activity sample for the test compound containing the compound of the present invention. A BHI (Brain Heart Infusion) agar with 7% horse blood was used as medium for investigation of the antibacterial activity against H. pylori and H. felis. 1 ml of the sample of the compound of the present invention was added to 9 ml of the medium, followed by mixing to prepare an agar plate for measuring the antibacterial activity. MH (Mueller Hinton) agar medium was used to investigate the antibacterial activities against Pseudomonas aeruginosa, Escherichia coli, Klebsiella pneumoniae, and Staphylococcus aureus; and 10% horse serum-added MH agar medium was used to investigate the antibacterial activities against Streptococcus pneumoniae and Enterococcus faecalis. In both cases, agar plates for measuring the antibacterial activities are prepared in a manner similar to that for H. pylori and H. felis. For H. pylori and H. felis out of the bacteria to be subjected to the tests, 1 ml of each frozen bacterium stock solution was inoculated to 9 ml of 7% bovine fetal serum-added BHI liquid medium, and cultured at 37° C. for 48 hours in a 10% CO2 incubator. Each culture bacterium solution was prepared with the same medium to 10^6 CFU/ml (colony formation unit/milliliter). 5 μl of the prepared bacterium solution was inoculated to the antibacterial activity measuring agar medium, and cultured at 37° C. for 4 days in a 10% CO2 incubator. MH liquid medium was used for Pseudomonas aeruginosa, Escherichia coli, Klebsiella pneumoniae, and Staphylococcus aureus; and 10% horse serum-added MH liquid medium was used for Streptococcus pneumoniae and Enterococcus faecalis. In both cases, 1 ml of each frozen bacterium stock solution was inoculated to 9 ml of the medium, and cultured at 37° C. overnight. Each culture bacterium solution was prepared with the same medium as that had been used in the incubation to 10^6 CFU/ml. 5 μl of the prepared bacterium solution was inoculated to the antibacterial activity measuring agar medium, and cultured at 37° C. overnight.
(§3) The results are represented by MIC (Minimum Inhibitory Concentration).

Assay [3] concerns Helicobacter pylori ATCC 43504. Nature of the assay: Agar plate dilution method, MIC. Type of assay: cell-based. As to conditions: ATCC43504, 96 h; Helicobacter pylori ATCC 43504, BHI agar with 7% horse blood, 4 days. As to the method:
as §1, §2, §3

In assay [4] the test system is Enterococcus faecalis ATCC 19433. The experiment in a line: Agar plate dilution method, MIC. Type of assay: cell-based. To be noted: ATCC19433; Enterococcus faecalis ATCC 19433, 10% horse serum-added MH agar, overnight. As to the method: as §1, §2, §3
Assay [5] deals with Helicobacter pylori SR-9043. The experiment in a line: Agar plate dilution method, MIC. Type of assay: cell-based. As to conditions: SR9043, 96 h; Helicobacter pylori SR-9043, BHI agar with 7% horse blood, 4 days. As to the method: as §1, §2, §3
For assay [6], the system named is Helicobacter felis ATCC 49179. The experiment in a line: Agar plate dilution method, MIC. As to conditions: ATCC49179, 96 h; Helicobacter felis ATCC 49179, BHI agar with 7% horse blood, 4 days. Type of assay: cell-based. As to the method:
as §1, §2, §3

Assay [7] has as its system Staphylococcus aureus FDA 209P. Nature of the assay: Agar plate dilution method, MIC. To be noted: FDA209P, MH agar, overnight. Type of assay: cell-based. As to the method: as §1, §2, §3
The subject of assay [8] is Streptococcus pneumoniae SR-1003. Nature of the assay: Agar plate dilution method, MIC. Type of assay: cell-based. As to conditions: SR1003; Streptococcus pneumoniae SR-1003, 10% horse serum-added MH agar, overnight. As for the experimental part: as §1, §2, §3
Assay [9] concerns Helicobacter pylori SS1. Nature of the assay: Agar plate dilution method, MIC. The assay is classed as cell-based. As to conditions: 96 h; Helicobacter pylori SS1, BHI agar with 7% horse blood, 4 days. As to the method: as §1, §2
(§4) The antibacterial activity of the compound against a subject bacterium (MIC: Minimum Inhibitory Concentration) was a maximum dilution ratio at which the growth of inoculated bacteria was not observed by the unaided eye.
as §3

Assay [10] has as its system Klebsiella pneumoniae ATCC 27736. The experiment in a line: Agar plate dilution method, MIC. Type of assay: cell-based. As to conditions: ATCC27736; Klebsiella pneumoniae ATCC 27736, MH agar, overnight. As to the method: as §1, §2, §4, §3
For assay [11], the system named is Pseudomonas aeruginosa ATCC 25619. The experiment in a line: Agar plate dilution method, MIC. As to conditions: ATCC25619; Pseudomonas aeruginosa ATCC 25619, MH agar, overnight. The assay is classed as cell-based. As to the method: as §1, §2, §4, §3
Assay [12] concerns Escherichia coli NIHJ JC-2. The experiment in a line: Agar plate dilution method, MIC. To be noted: NIHJJC2; Escherichia coli NIHJ JC-2, MH agar, overnight. Type of assay: cell-based. As for the experimental part:
as §1, §2, §4, §3

`CC1(C)S[C@@H]2[C@H](NC(=O)[C@H](N)c3ccc(O)cc3)C(=O)N2[C@H]1C(=O)O` [Amoxicillin, amoxicillin]: the Bacterial eradication number in assay [1] (20 mg/kg twice a day) was found to be 1; in assay [1] (40 mg/kg twice a day) it was 2. The figures for the bacterial eradication % in [1] (20 mg/kg twice a day) and in assay [1] (40 mg/kg twice a day) were 33% and 67%, respectively. Moreover, the “Number of each bacterium in stomach” value in assay [1] (20 mg/kg twice a day) was 1.60 log CFU/stomach and < 1.3 log CFU/stomach; in [1] (40 mg/kg twice a day), <1.3, <1.3, log CFU/stomach (2×) and 1.78 log CFU/stomach. Moreover, the bacterial eradication effect entry in assay [1] is on record as “not observed”. In addition, the minimum inhibitory concentration (MIC) in assay [2] was found to be 0.1 µg/mL (≈ 0.274 µM); in assay [3], 0.025 µg/mL (≈ 0.0684 µM); in assay [4], 0.39 µg/mL (≈ 1.07 µM); in assay [5] it was 0.39 µg/mL (≈ 1.07 µM); in [6], 0.1 µg/mL (≈ 0.274 µM); in [7], 0.05 µg/mL (≈ 0.137 µM). The MIC is 0.05 µg/mL (≈ 0.137 µM) in [8]; 0.39 µg/mL (≈ 1.07 µM) in assay [9]; 0.2 µg/mL (≈ 0.547 µM) in [10]; greater than 25 µg/mL in assay [11]; 6.25 µg/mL (≈ 17.1 µM) in assay [12].
With `CC[C@H]1OC(=O)[C@H](C)[C@@H](O[C@H]2C[C@@](C)(OC)[C@@H](O)[C@H](C)O2)[C@H](C)[C@@H](O[C@@H]2O[C@H](C)C[C@H](N(C)C)[C@H]2O)[C@](C)(OC)C[C@@H](C)C(=O)[C@H](C)[C@@H](O)[C@]1(C)O` [Clarithromycin, clarithromycin], the Bacterial eradication number in [1] (20 mg/kg twice a day) and in assay [1] (40 mg/kg twice a day) was 0 (0) in each case. Further, the bacterial eradication % in [1] (20 mg/kg twice a day) and in assay [1] (40 mg/kg twice a day) was 0 (0) % throughout. Besides, the “Number of each bacterium in stomach” value in assay [1] (20 mg/kg twice a day) is 2.79 log CFU/stomach and 2.89 log CFU/stomach and 3.37 log CFU/stomach; in [1] (40 mg/kg twice a day) it was 1.6, 1.6, log CFU/stomach (2×) and 2.38 log CFU/stomach. Also, in [1], the bacterial eradication effect entry was “not observed”. The minimal inhibitory concentration (MIC) is 0.1 µg/mL (≈ 0.134 µM) in assay [2]; 0.025 µg/mL (≈ 0.0334 µM) in assay [3]; greater than 25 µg/mL in assay [4]; greater than 25 µg/mL in assay [5]; less than 0.025 µg/mL in assay [6]; 0.05 µg/mL (≈ 0.0668 µM) in [7]. Further, the MIC is 0.0125 µg/mL (≈ 0.0167 µM) in [8]; 0.025 µg/mL (≈ 0.0334 µM) in assay [9]; greater than 25 µg/mL in assay [10]; greater than 25 µg/mL in assay [11]; 12.5 µg/mL (≈ 16.7 µM) in [12].
Consider `O=C1c2ccc3c4c(ccc(c24)C(=O)N1c1ccccn1)C(=O)N(c1ccccn1)C3=O` [Compound 2, N,N′-bis-(2-pyridyl)naphthalene-1,4,5,8-tetracarboxylate diimide], for which the “bacterial eradication effect (samples)” value in assay [1] (20 mg/kg) was 3/3. In addition, the Bacterial eradication number in assay [1] (20 mg/kg twice a day) amounted to 3. The molecule also returned a bacterial eradication % in assay [1] (20 mg/kg twice a day) of 100%. The “Number of each bacterium in stomach” value in [1] (20 mg/kg twice a day) is <1.3, <1.3, log CFU/stomach (2×) and <1.3 log CFU/stomach. Further, the MIC in assay [2] was 0.2 µg/mL (≈ 0.476 µM); in [3] it was 0.2 µg/mL (≈ 0.476 µM); in [4] it was greater than 25 µg/mL; in assay [5], 0.39 µg/mL (≈ 0.928 µM); in [6], 0.1 µg/mL (≈ 0.238 µM); in [7] it was greater than 25 µg/mL. Besides, the minimum inhibitory concentration (MIC) is greater than 25 µg/mL in assay [8]; 0.1 µg/mL (≈ 0.238 µM) in assay [9]; greater than 25 µg/mL in assay [10]; greater than 25 µg/mL in assay [11]; greater than 25 µg/mL in assay [12].
Turning to `CN1C(=O)c2ccc3c4c(ccc(c24)C1=O)C(=O)N(C)C3=O` [Compound 3], the MIC in assay [3] was 6.25 µg/mL (≈ 21.2 µM); in assay [7] it was greater than 25 µg/mL; in [11], greater than 25 µg/mL; in assay [12], greater than 25 µg/mL.
For `O=C1c2ccc3c4c(ccc(c24)C(=O)N1c1nccs1)C(=O)N(c1nccs1)C3=O` [Compound 4], the minimum inhibitory concentration (MIC) in assay [3] was 2.5 µg/mL (≈ 5.78 µM); in assay [7], greater than 25 µg/mL; in assay [11], greater than 25 µg/mL; in assay [12], greater than 25 µg/mL.
Regarding `O=C1c2ccccc2C(=O)N1N1C(=O)c2ccc3c4c(ccc(c24)C1=O)C(=O)N(N1C(=O)c2ccccc2C1=O)C3=O` [Compound 5], the MIC was 12.5 µg/mL (≈ 22.5 µM) in assay [3], greater than 25 µg/mL in [7], greater than 25 µg/mL in assay [11] and greater than 25 µg/mL in assay [12].
Turning to `CC(=O)OCCN1C(=O)c2ccc3c4c(ccc(c24)C1=O)C(=O)N(CCOC(C)=O)C3=O` [Compound 6], the minimum inhibitory concentration (MIC) in assay [3] was 0.31 µg/mL (≈ 0.707 µM); in [7] it was greater than 25 µg/mL; in assay [11], greater than 25 µg/mL; in assay [12], greater than 25 µg/mL.
Turning to `CN(C)CCN1C(=O)c2ccc3c4c(ccc(c24)C1=O)C(=O)N(CCN(C)C)C3=O` [Compound 7], the MIC was 0.39 µg/mL (≈ 0.955 µM) in assay [3], greater than 25 µg/mL in [7], greater than 25 µg/mL in assay [11] and greater than 25 µg/mL in assay [12].
On to `Cc1ncc([N+](=O)[O-])n1CCO` [Metronidazole, metronidazole], for which the minimum inhibitory concentration (MIC) in assay [2] was 3.13 µg/mL (≈ 18.3 µM); in [3] it was greater than 25 µg/mL; in assay [4], greater than 25 µg/mL; in assay [5] it was greater than 25 µg/mL; in assay [6], 0.78 µg/mL (≈ 4.56 µM); in assay [7] it was greater than 25 µg/mL. The MIC was greater than 25 µg/mL in assay [8]; 0.78 µg/mL (≈ 4.56 µM) in assay [9]; greater than 25 µg/mL in assay [10]; greater than 25 µg/mL in [11]; greater than 25 µg/mL in assay [12].
`CN(C)[C@@H]1C(O)=C(C(N)=O)C(=O)[C@@]2(O)C(O)=C3C(=O)c4c(O)cccc4[C@@](C)(O)[C@H]3C[C@@H]12` [Tetracycline, tetracycline]: the minimum inhibitory concentration (MIC) is 3.13 µg/mL (≈ 7.04 µM) in assay [10], greater than 25 µg/mL in assay [11] and 1.56 µg/mL (≈ 3.51 µM) in assay [12].

The record behind these values is US20040116493A1, “Anti-helicobacterial agents” (priority 2000, published 2004).
